This note sets out measurements from the supplement of paper PMC10307832.

Test in all cases: relative viability (nuclei count vs DMSO), 5 days (fraction); higher = more cells survive
Compound in the test “17-AAG + Crizotinib”: C=CCNC1=C2C[C@@H](C)C[C@H](OC)[C@H](O)[C@@H](C)/C=C(\C)[C@H](OC(N)=O)[C@@H](OC)/C=C\C=C(/C)C(=O)NC(=CC1=O)C2=O [17-AAG] + C[C@@H](Oc1cc(-c2cnn(C3CCNCC3)c2)cnc1N)c1c(Cl)ccc(F)c1Cl [Crizotinib] (partner 1 µM)
In a few lines: (§1)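 For relative viability, nuclei counts in treated wells were divided by those in vehicle wells. Lung cancer cell lines had been pin-tool dosed in 1536-well plates the day after seeding and cultured for 5 days, then fixed and stained in one step (final 0.05% Triton X-100, 1% formaldehyde, 1 ug/ml Hoechst) and imaged at 4×. Doses were one drug alone or a fixed anchor-drug dose plus five library-drug doses (not always all listed) in √10 steps, and values are duplicate-plate medians.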

Compound in the test “17-AAG + Tozasertib”: C=CCNC1=C2C[C@@H](C)C[C@H](OC)[C@H](O)[C@@H](C)/C=C(\C)[C@H](OC(N)=O)[C@@H](OC)/C=C\C=C(/C)C(=O)NC(=CC1=O)C2=O [17-AAG] + Cc1cc(Nc2cc(N3CCN(C)CC3)nc(Sc3ccc(NC(=O)C4CC4)cc3)n2)n[nH]1 [Tozasertib] (partner 0.1 µM)
In a few lines:
as §1

Compound in the test “17-AAG + OSI-027”: C=CCNC1=C2C[C@@H](C)C[C@H](OC)[C@H](O)[C@@H](C)/C=C(\C)[C@H](OC(N)=O)[C@@H](OC)/C=C\C=C(/C)C(=O)NC(=CC1=O)C2=O [17-AAG] + COc1cccc2cc(-c3nc([C@H]4CC[C@H](C(=O)O)CC4)n4ncnc(N)c34)[nH]c12 [OSI-027] (partner 0.5 µM)
The essentials:
as §1

Compound in the test “17-AAG + Linsitinib”: C=CCNC1=C2C[C@@H](C)C[C@H](OC)[C@H](O)[C@@H](C)/C=C(\C)[C@H](OC(N)=O)[C@@H](OC)/C=C\C=C(/C)C(=O)NC(=CC1=O)C2=O [17-AAG] + C[C@]1(O)C[C@@H](c2nc(-c3ccc4ccc(-c5ccccc5)nc4c3)c3c(N)nccn32)C1 [Linsitinib] (partner 1 µM)
In a few lines: as §1

NCI-H727: the relative viability with 17-AAG + Crizotinib (first compound 0.00128 µM) was 0.968; with 17-AAG + Crizotinib (first compound 0.004048 µM), 0.74; in the test with 17-AAG + Crizotinib (first compound 0.0128 µM), 0.586; in the test with 17-AAG + Crizotinib (first compound 0.04048 µM) it was 0.191; in the test with 17-AAG + Crizotinib (first compound 0.128 µM), 0.188; with 17-AAG + Tozasertib (first compound 0.00128 µM) it was 0.569. The relative viability came to 0.682 with 17-AAG + Tozasertib (first compound 0.004048 µM); 0.53 with 17-AAG + Tozasertib (first compound 0.0128 µM); 0.453 with 17-AAG + Tozasertib (first compound 0.04048 µM); 0.25 in the test with 17-AAG + Tozasertib (first compound 0.128 µM); 0.602 with 17-AAG + OSI-027 (first compound 0.00128 µM); 0.573 in the test with 17-AAG + OSI-027 (first compound 0.004048 µM). Also, the relative viability with 17-AAG + OSI-027 (first compound 0.0128 µM) is 0.506; with 17-AAG + OSI-027 (first compound 0.04048 µM), 0.359; in the test with 17-AAG + OSI-027 (first compound 0.128 µM) it was 0.24; with 17-AAG + Linsitinib (first compound 0.00128 µM), 0.312; in the test with 17-AAG + Linsitinib (first compound 0.004048 µM), 0.252; with 17-AAG + Linsitinib (first compound 0.0128 µM), 0.176. In addition, the relative viability was found to be 0.179 with 17-AAG + Linsitinib (first compound 0.04048 µM) and 0.22 in the test with 17-AAG + Linsitinib (first compound 0.128 µM).

NCI-H661: the relative viability amounted to 1.13 in the test with 17-AAG + Crizotinib (first compound 0.00128 µM); 1.02 with 17-AAG + Crizotinib (first compound 0.004048 µM); 0.947 with 17-AAG + Crizotinib (first compound 0.0128 µM); 0.841 in the test with 17-AAG + Crizotinib (first compound 0.04048 µM); 0.532 in the test with 17-AAG + Crizotinib (first compound 0.128 µM); 0.372 with 17-AAG + Tozasertib (first compound 0.00128 µM). The relative viability with 17-AAG + Tozasertib (first compound 0.004048 µM) worked out at 0.326; with 17-AAG + Tozasertib (first compound 0.0128 µM), 0.358; with 17-AAG + Tozasertib (first compound 0.04048 µM) it was 0.344; with 17-AAG + Tozasertib (first compound 0.128 µM), 0.289; with 17-AAG + OSI-027 (first compound 0.00128 µM), 0.713; with 17-AAG + OSI-027 (first compound 0.004048 µM), 0.672. For the same cell line, the relative viability with 17-AAG + OSI-027 (first compound 0.0128 µM) turned out to be 0.636; in the test with 17-AAG + OSI-027 (first compound 0.04048 µM), 0.261; with 17-AAG + OSI-027 (first compound 0.128 µM) it was 0.21; with 17-AAG + Linsitinib (first compound 0.00128 µM), 0.558; with 17-AAG + Linsitinib (first compound 0.004048 µM), 0.569; in the test with 17-AAG + Linsitinib (first compound 0.0128 µM) it was 0.516. Moreover, the relative viability in the test with 17-AAG + Linsitinib (first compound 0.04048 µM) is 0.45; in the test with 17-AAG + Linsitinib (first compound 0.128 µM), 0.259.

Consider NCI-H650, for which the relative viability with 17-AAG + Crizotinib (first compound 0.00128 µM) was 0.759; in the test with 17-AAG + Crizotinib (first compound 0.004048 µM) it was 0.685; with 17-AAG + Crizotinib (first compound 0.0128 µM), 0.6; in the test with 17-AAG + Crizotinib (first compound 0.04048 µM), 0.476; with 17-AAG + Crizotinib (first compound 0.128 µM), 0.134; with 17-AAG + Tozasertib (first compound 0.00128 µM), 0.698. Besides, the relative viability turned out to be 0.675 with 17-AAG + Tozasertib (first compound 0.004048 µM); 0.702 with 17-AAG + Tozasertib (first compound 0.0128 µM); 0.584 in the test with 17-AAG + Tozasertib (first compound 0.04048 µM); 0.153 with 17-AAG + Tozasertib (first compound 0.128 µM); 0.502 in the test with 17-AAG + OSI-027 (first compound 0.00128 µM); 0.602 in the test with 17-AAG + OSI-027 (first compound 0.004048 µM). Further, the relative viability with 17-AAG + OSI-027 (first compound 0.0128 µM) worked out at 0.494; with 17-AAG + OSI-027 (first compound 0.04048 µM), 0.426; in the test with 17-AAG + OSI-027 (first compound 0.128 µM) it was 0.258; with 17-AAG + Linsitinib (first compound 0.00128 µM), 0.865; in the test with 17-AAG + Linsitinib (first compound 0.004048 µM), 0.908; in the test with 17-AAG + Linsitinib (first compound 0.0128 µM), 0.788. Also, the figures for the relative viability in the test with 17-AAG + Linsitinib (first compound 0.04048 µM) and with 17-AAG + Linsitinib (first compound 0.128 µM) were 0.314 and 0.177, respectively.

For NCI-H1650, the relative viability with 17-AAG + Crizotinib (first compound 0.00128 µM) came to 1.01; with 17-AAG + Crizotinib (first compound 0.004048 µM), 0.659; with 17-AAG + Crizotinib (first compound 0.0128 µM), 0.136; with 17-AAG + Crizotinib (first compound 0.04048 µM), 0.179; in the test with 17-AAG + Crizotinib (first compound 0.128 µM), 0.126; in the test with 17-AAG + Tozasertib (first compound 0.00128 µM), 0.458. In addition, the relative viability with 17-AAG + Tozasertib (first compound 0.004048 µM) was found to be 0.317; in the test with 17-AAG + Tozasertib (first compound 0.0128 µM), 0.215; with 17-AAG + Tozasertib (first compound 0.04048 µM), 0.175; with 17-AAG + Tozasertib (first compound 0.128 µM) it was 0.206; with 17-AAG + OSI-027 (first compound 0.00128 µM), 0.483; with 17-AAG + OSI-027 (first compound 0.004048 µM), 0.226. Moreover, the figures for the relative viability in the test with 17-AAG + OSI-027 (first compound 0.0128 µM), with 17-AAG + OSI-027 (first compound 0.04048 µM) and with 17-AAG + OSI-027 (first compound 0.128 µM) were 0.139, 0.189 and 0.176, respectively.

In the case of NCI-H522, the relative viability with 17-AAG + Tozasertib (first compound 0.00128 µM) turned out to be 0.621; with 17-AAG + Tozasertib (first compound 0.004048 µM), 0.532; with 17-AAG + Tozasertib (first compound 0.0128 µM) it was 0.619; in the test with 17-AAG + Tozasertib (first compound 0.04048 µM), 0.558; in the test with 17-AAG + Tozasertib (first compound 0.128 µM) it was 0.502; in the test with 17-AAG + OSI-027 (first compound 0.00128 µM), 0.663. In addition, the relative viability is 0.685 in the test with 17-AAG + OSI-027 (first compound 0.004048 µM), 0.655 with 17-AAG + OSI-027 (first compound 0.0128 µM), 0.542 with 17-AAG + OSI-027 (first compound 0.04048 µM) and 0.552 with 17-AAG + OSI-027 (first compound 0.128 µM).

In the case of NCI-H2170, the relative viability with 17-AAG + Crizotinib (first compound 0.00128 µM) turned out to be 1.29; in the test with 17-AAG + Crizotinib (first compound 0.004048 µM) it was 1.19; with 17-AAG + Crizotinib (first compound 0.0128 µM), 0.959; with 17-AAG + Crizotinib (first compound 0.04048 µM), 0.588; with 17-AAG + Crizotinib (first compound 0.128 µM), 0.203; with 17-AAG + Tozasertib (first compound 0.00128 µM) it was 0.739. Further, the relative viability with 17-AAG + Tozasertib (first compound 0.004048 µM) came to 0.77; with 17-AAG + Tozasertib (first compound 0.0128 µM) it was 0.65; with 17-AAG + Tozasertib (first compound 0.04048 µM) it was 0.327; with 17-AAG + Tozasertib (first compound 0.128 µM), 0.173; in the test with 17-AAG + OSI-027 (first compound 0.00128 µM), 0.652; with 17-AAG + OSI-027 (first compound 0.004048 µM), 0.585. Further, the results for the relative viability with 17-AAG + OSI-027 (first compound 0.0128 µM), with 17-AAG + OSI-027 (first compound 0.04048 µM) and in the test with 17-AAG + OSI-027 (first compound 0.128 µM) were 0.385, 0.187 and 0.118, respectively.

As to NCI-H1563, the relative viability was 0.903 in the test with 17-AAG + Crizotinib (first compound 0.00128 µM); 0.836 in the test with 17-AAG + Crizotinib (first compound 0.004048 µM); 0.562 with 17-AAG + Crizotinib (first compound 0.0128 µM); 0.462 with 17-AAG + Crizotinib (first compound 0.04048 µM); 0.473 with 17-AAG + Crizotinib (first compound 0.128 µM); 0.755 in the test with 17-AAG + OSI-027 (first compound 0.00128 µM). Further, the relative viability with 17-AAG + OSI-027 (first compound 0.004048 µM) is 0.647; with 17-AAG + OSI-027 (first compound 0.0128 µM), 0.564; in the test with 17-AAG + OSI-027 (first compound 0.04048 µM) it was 0.509; with 17-AAG + OSI-027 (first compound 0.128 µM), 0.481; with 17-AAG + Linsitinib (first compound 0.00128 µM), 1.17; with 17-AAG + Linsitinib (first compound 0.004048 µM) it was 0.952. Moreover, the relative viability with 17-AAG + Linsitinib (first compound 0.0128 µM) came to 0.668; with 17-AAG + Linsitinib (first compound 0.04048 µM), 0.623; with 17-AAG + Linsitinib (first compound 0.128 µM), 0.622.

As for EBC-1, the relative viability stood at 0.237 in the test with 17-AAG + Crizotinib (first compound 0.00128 µM); 0.207 with 17-AAG + Crizotinib (first compound 0.004048 µM); 0.163 with 17-AAG + Crizotinib (first compound 0.0128 µM); 0.148 with 17-AAG + Crizotinib (first compound 0.04048 µM); 0.135 with 17-AAG + Crizotinib (first compound 0.128 µM); 0.851 in the test with 17-AAG + Linsitinib (first compound 0.00128 µM). The relative viability is 0.579 with 17-AAG + Linsitinib (first compound 0.004048 µM), 0.162 in the test with 17-AAG + Linsitinib (first compound 0.0128 µM), 0.139 with 17-AAG + Linsitinib (first compound 0.04048 µM) and 0.12 with 17-AAG + Linsitinib (first compound 0.128 µM).

For Calu-6, the relative viability turned out to be 0.842 with 17-AAG + Crizotinib (first compound 0.00128 µM); 0.77 with 17-AAG + Crizotinib (first compound 0.004048 µM); 0.775 in the test with 17-AAG + Crizotinib (first compound 0.0128 µM); 0.202 with 17-AAG + Crizotinib (first compound 0.04048 µM); 0.109 in the test with 17-AAG + Crizotinib (first compound 0.128 µM); 0.86 with 17-AAG + Linsitinib (first compound 0.00128 µM). Moreover, the relative viability in the test with 17-AAG + Linsitinib (first compound 0.004048 µM) turned out to be 0.977; with 17-AAG + Linsitinib (first compound 0.0128 µM), 0.942; with 17-AAG + Linsitinib (first compound 0.04048 µM) it was 0.353; in the test with 17-AAG + Linsitinib (first compound 0.128 µM), 0.146.
